Source: patent US8354547B2, “4β-amino podophyllotoxin congeners as anti tumour antibiotics a process for the preparation thereof” (Council of Scientific & Industrial Research, priority 2008, dated 2013)

How the values were obtained:
[1] = tested on: Liver (HEP-2) cancer cell line; experiment: SRB in vitro cytotoxicity assay, Liver HEP-2; type: cell-based, human
Description: (§1) Single cell suspension of the tumor cells grown in tissue culture were made, cells counted and cell count adjusted to 1×10^5 to 5×10^5 Ninetysix (96) well plates were seeded with this cell suspension, each well receiving 100 μl of it. The plate was then be incubated at 37° C. temperature in CO2 incubator for 24 hours. Drugs were added at appropriate concentrations after 24-hour, incubation followed by further incubation for 48 hours. Experiment was terminated by gently layering the cells in the wells with 30% TCA and plates were kept in refrigerator for 1 hour following which they were washed thoroughly with tap water, dried attained with 0.4% SRB in 1% acetic aid and finally, the bound SRB eluted with 10 mM tris. Absorbance was read at 540 nm, in the microtitre-plate reader. Optical density of drug-treated cells was compared with that of control cells and cell inhibition was calculated as percent values. […]

[2] = tested on: Neuroblastoma (IMR-32) cancer cell line; experiment: SRB in vitro cytotoxicity assay, Neuroblastoma IMR-32; type: cell-based, human
Description: as §1

[3] = tested on: Breast (MCF-7) cancer cell line; experiment: SRB in vitro cytotoxicity assay, Breast MCF-7; type: cell-based, human
Description: as §1

[4] = tested on: CNS (SK-N-SH) cancer cell line; experiment: SRB in vitro cytotoxicity assay, CNS SK-N-SH; type: cell-based, human
Description: as §1

[5] = tested on: Colon (Colo-205) cancer cell line; experiment: SRB in vitro cytotoxicity assay, Colon Colo-205; type: cell-based, human
Description: as §1

[6] = tested on: Colon (SW-620) cancer cell line; experiment: SRB in vitro cytotoxicity assay, Colon SW-620; type: cell-based, human
Description: as §1

Topoisomerase-I = molecular target: T1, Topoisomerase-I (Homo sapiens, UniProt P11387); experiment: Topoisomerase-I relaxation assay; type: biochemical; settings: at 100 μM (FIG. 2)
T1 sequence (P11387 1-765): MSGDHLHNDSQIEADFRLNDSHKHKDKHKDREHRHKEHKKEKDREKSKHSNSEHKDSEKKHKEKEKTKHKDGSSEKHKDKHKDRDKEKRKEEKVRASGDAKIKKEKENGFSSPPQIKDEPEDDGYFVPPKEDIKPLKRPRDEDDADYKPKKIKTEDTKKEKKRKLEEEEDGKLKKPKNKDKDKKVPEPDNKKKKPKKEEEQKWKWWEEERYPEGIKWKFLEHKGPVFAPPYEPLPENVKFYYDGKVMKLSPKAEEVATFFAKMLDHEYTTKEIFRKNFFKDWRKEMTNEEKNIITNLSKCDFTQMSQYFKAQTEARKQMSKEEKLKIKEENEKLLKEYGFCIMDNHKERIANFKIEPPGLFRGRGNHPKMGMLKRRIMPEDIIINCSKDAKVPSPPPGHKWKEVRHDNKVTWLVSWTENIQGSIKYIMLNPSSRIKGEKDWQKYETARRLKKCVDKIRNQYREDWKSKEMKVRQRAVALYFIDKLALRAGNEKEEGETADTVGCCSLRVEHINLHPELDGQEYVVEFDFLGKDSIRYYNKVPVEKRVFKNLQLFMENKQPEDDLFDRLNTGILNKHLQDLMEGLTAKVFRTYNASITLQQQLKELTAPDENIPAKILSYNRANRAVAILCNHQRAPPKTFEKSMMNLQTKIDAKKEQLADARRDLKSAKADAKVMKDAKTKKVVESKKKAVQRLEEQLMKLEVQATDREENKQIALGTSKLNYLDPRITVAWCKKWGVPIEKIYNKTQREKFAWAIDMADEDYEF
Description: Apart from this, some of these analogues were evaluated for Topoisomerase-I relaxation, Topoisomerase-II inhibition, DNA laddering assay and DNA cell cycle analysis. Compounds 3c, 4c, 3d and 4d were analyzed for topoisomerase-I assay at 100 μM (FIG. 2) only compound 3d was found active and rest were not active. Compounds 3d, 4d and 4c were analyzed for topoisomerase inhibition assay.
Reaction was assembled in micro centrifuge tube that contains super coiled DNA 250 ng/μl & Topoisomerase-I (4 units) in assay buffer (10 mM Tris-HCl, pH 7.9, 0.15 M NaCl, 0.1% BSA, and 5.0 mM (beta)-mercaptoethanol). In each reaction 2 μl sample was added then volume was made up to 20 μl with water and then incubated at 37° C. Reaction was terminated by addition of 2 μl of 10% SDS. Each sample tube was treated with proteinase K and extracted once with chloroform: isoamyl alcohol. Products were resolved by 0.8% agarose gel electrophoresis in TAE buffer (40 mM tris-acetate, pH 8.0, and 1 mM EDTA) and stained with 0.5 μg/ml ethedium bromide (EtBr).

Topoisomerase-II = experiment: DNA Topoisomerase-II inhibition assay; type: biochemical; settings: FIG. 3
[7] = concentration 1 × 10^−5 (μM/mL)
[8] = concentration 1 × 10^−6 (μM/mL), control drug

SMILES	Growth Inhibition(%) Liver HEP-2 [1, 7]	Growth Inhibition(%) Neuroblastma IMR-32 [2, 7]	Growth Inhibition(%) Breast MCF-7 [3, 7]	Growth Inhibition(%) CNS SK-N-SH [4, 7]	Growth Inhibition(%) Colon Colo-205 [5, 7]	Growth Inhibition(%) Colon SW-620 [6, 7]	activity in topoisomerase-I assay (Topoisomerase-I)	activity in topoisomerase inhibition assay (Topoisomerase-II) (Topoisomerase-II)	Growth Inhibition(%) Liver HEP-2 [1, 8]	Growth Inhibition(%) Neuroblastma IMR-32 [2, 8]	Growth Inhibition(%) Breast MCF-7 [3, 8]	Growth Inhibition(%) CNS SK-N-SH [4, 8]	Growth Inhibition(%) Colon Colo-205 [5, 8]	Growth Inhibition(%) Colon SW-620 [6, 8]
COc1cc([C@@H]2c3cc4c(cc3[C@@H](Nc3cccc5cc6ccccc6cc35)[C@@H]3COC(=O)[C@H]23)OCO4)cc(OC)c1O [Compound 4a, 4′-O-Demethyl-4β-(1″-anthrylamino)-4-desoxypodophyllotoxin]	58%	0%	0%	38%	39%	22%	–	–	–	–	–	–	–	–
COc1cc([C@@H]2c3cc4c(cc3[C@@H](Nc3ccc(C(=O)c5ccc(F)cc5)cc3)[C@@H]3COC(=O)[C@H]23)OCO4)cc(OC)c1OC [Compound 3e, 4β-[4″-(4″-Fluorobenzoyl)anilino]-4-desoxypodophyllotoxin]	0%	0%	30%	34%	68%	10%	–	–	–	–	–	–	–	–
COc1cc([C@@H]2c3cc4c(cc3[C@@H](Nc3cc5c6ccccc6ccc5c5ccccc35)[C@@H]3COC(=O)[C@H]23)OCO4)cc(OC)c1O [Compound 4d, 4′-O-Demethyl-4β-(6″-chrycenylamino)-4-desoxypodophyllotoxin]	76%	0%	0%	58%	58%	17%	not active	None of the compounds are active	–	–	–	–	–	–
COc1cccc2c1C(=O)c1c(O)c3c(c(O)c1C2=O)C[C@@](O)(C(=O)CO)C[C@@H]3O[C@H]1C[C@H](N)[C@H](O)[C@H](C)O1 [ADR, Adriamycin, reference compound]	–	–	–	–	–	–	–	–	23%	0%	23%	36%	18%	21%
COc1cc([C@@H]2c3cc4c(cc3[C@@H](Nc3ccc5ccc6cccc7ccc3c5c67)[C@@H]3COC(=O)[C@H]23)OCO4)cc(OC)c1OC [Compound 3c, 4β-(1″-Pyrenylamino)-4-desoxypodophyllotoxin]	66%	0%	0%	59%	64%	29%	not active	–	–	–	–	–	–	–
COc1cc([C@@H]2c3cc4c(cc3[C@@H](Nc3ccc(C(=O)c5ccc(F)cc5)cc3)[C@@H]3COC(=O)[C@H]23)OCO4)cc(OC)c1O [Compound 4e, 4′-O-Demethyl-4β-[4″-(4″-fluorobenzoyl)anilino]-4-desoxypodophyllotoxin]	51%	11%	39%	91%	77%	42%	–	–	–	–	–	–	–	–
COc1cc([C@@H]2c3cc4c(cc3[C@@H](Nc3cccc5c3Cc3ccccc3-5)[C@@H]3COC(=O)[C@H]23)OCO4)cc(OC)c1OC [Compound 3b, 4β-(1″-Fluorenylamino)-4-desoxypodophyllotoxin]	77%	0%	4%	44%	49%	11%	–	–	–	–	–	–	–	–
COc1cc([C@@H]2c3cc4c(cc3[C@@H](Nc3cccc5cc6ccccc6cc35)[C@@H]3COC(=O)[C@H]23)OCO4)cc(OC)c1OC [Compound 3a, 4β-(1″-Anthrylamino)-4-desoxypodophyllotoxin]	46%	16%	5%	65%	55%	25%	–	–	–	–	–	–	–	–
COc1cc([C@@H]2c3cc4c(cc3[C@@H](Nc3cccc5c3Cc3ccccc3-5)[C@@H]3COC(=O)[C@H]23)OCO4)cc(OC)c1O [Compound 4b, 4′-O-Demethyl-4β-(1″-fluorenylamino)-4-desoxypodophyllotoxin]	0%	0%	39%	50%	55%	15%	–	–	–	–	–	–	–	–
COc1cc([C@@H]2c3cc4c(cc3[C@@H](Nc3ccc(C(=O)c5ccc(N(CCCl)CCCl)cc5)cc3)[C@@H]3COC(=O)[C@H]23)OCO4)cc(OC)c1OC [Compound 3f, 4β-(4″-{4″-[Di(2″-chloroethyl)amino]benzoyl}anilino)-4-desoxypodophyllotoxin]	45%	0%	40%	83%	74%	15%	–	–	–	–	–	–	–	–
COc1cc([C@@H]2c3cc4c(cc3[C@@H](Nc3ccc5ccc6cccc7ccc3c5c67)[C@@H]3COC(=O)[C@H]23)OCO4)cc(OC)c1O [Compound 4c, 4′-O-Demethyl-4β-(1″-pyrenylamino)-4-desoxypodophyllotoxin]	39%	0%	0%	40%	40%	7%	not active	None of the compounds are active	–	–	–	–	–	–
